Measured values as given in US20070049564A1 (Wyeth, priority 2005, published 2007).
In brackets after ≈: the same amount, converted by molar mass. Read-outs that look alike come from different tables or passages of the source.

Assays:
S. aureus GC 6335 = assay: MIC, broth microdilution; settings: Staphylococcus aureus
P. aeruginosa GC 2214 = assay: MIC, broth microdilution; settings: Pseudomonas aeruginosa
Staph. aureus Smith = assay: In vivo activity (oral, iv; ED50) against Staph. aureus Smith in mice
Protocol: Representative examples of compounds of Formula I were tested for the oral efficacy using S. aureus Smith in mice.

E. faecalis GC 2265 = assay: MIC, broth microdilution; settings: Enterococcus faecalis
S. aureus GC 4536 = assay: MIC, broth microdilution; settings: Staphylococcus aureus
E. coli GC 2271 = assay: MIC, broth microdilution; settings: Escherichia coli
E. coli GC 4559 = assay: MIC, broth microdilution; settings: Escherichia coli
Protocol: (§1) Antimicrobial susceptibility testing. The in vitro activities of the antibiotics are determined by the broth microdilution method as recommended by the National Committee for Clinical Laboratory Standards (NCCLS) (1). Mueller-Hinton II broth (MHBII)(BBL Cockeysville, Md.) is the medium employed in the testing procedures. Microtiter plates containing serial dilutions of each antimicrobial agent are inoculated with each organism to yield the appropriate density (10^5 CFU/ml) in a 100 μl final volume. The plates are incubated for 18-22 hours at 35° C. in ambient air.
(§2) Representative compounds were first incubated in mouse serum for an hour prior to the in vitro testing against a panel of selected gram-positive and gram-negative bacteria strains. All compounds were also pre-incubated in water for an hour prior to testing as control. Representative compounds of Formula I were incubated in human serum prior to MIC determination.

E. coli GC 2232 = assay: MIC, broth microdilution; settings: Escherichia coli
Protocol: as §1, §2

S. pyogenes GC 4563 = assay: MIC, broth microdilution; settings: Streptococcus pyogenes
Protocol: Antimicrobial susceptibility testing. The in vitro activities of the antibiotics are determined by the broth microdilution method as recommended by the National Committee for Clinical Laboratory Standards (NCCLS) (1). Mueller-Hinton II broth (MHBII)(BBL Cockeysville, Md.) is the medium employed in the testing procedures. Microtiter plates containing serial dilutions of each antimicrobial agent are inoculated with each organism to yield the appropriate density (10^5 CFU/ml) in a 100 μl final volume. The plates are incubated for 18-22 hours at 35° C. in ambient air. […] Standard Pharmacological Test Procedures
Presented in Tables I-XIII are representative compounds of Formula I which were evaluated against a panel of 40 selected gram-positive and gram-negative bacteria strains by pre-incubation in water, mouse serum or human serum. Representative compounds were first incubated in mouse serum for an hour prior to the in vitro testing against a panel of selected gram-positive and gram-negative bacteria strains. All compounds were also pre-incubated in water for an hour prior to testing as control. Representative compounds of Formula I were incubated in human serum prior to MIC determination.

S. pneumoniae+ GC 4465 = assay: MIC, broth microdilution; settings: Streptococcus pneumoniae
E. coli = assay: Range of MIC for E. coli strains; settings: Escherichia coli
S. aureus GC 6469 = assay: MIC, broth microdilution; settings: Staphylococcus aureus
E. coli GC 2270 = assay: MIC, broth microdilution; settings: Escherichia coli
Protocol: as §1, §2

E. faecium GC 2243 = assay: MIC, broth microdilution; settings: Enterococcus faecium
S. agalactiae GC 4564 = assay: MIC, broth microdilution; settings: Streptococcus agalactiae
E. coli GC 1073 = assay: MIC, broth microdilution; settings: Escherichia coli
S. aureus GC 2216 = assay: MIC, broth microdilution; settings: Staphylococcus aureus
E. faecalis GC 2242 = assay: MIC, broth microdilution; settings: Enterococcus faecalis
E. coli GC 3226 = assay: MIC, broth microdilution; settings: Escherichia coli
c. albicans GC 3066 = assay: MIC, broth microdilution

Compound: CCCCN(CC(=O)Nc1cc(N(C)C)c2c(c1O)C(=O)C1=C(O)[C@]3(O)C(=O)C(C(N)=O)=C(O)[C@@H](N(C)C)[C@@H]3C[C@@H]1C2)C(=O)OCOC(=O)c1cccs1 [Example 23, ({[(2-{[(5aR,6aS,7S,10aS)-9-(aminocarbonyl)-4,7-bis(dimethylamino)-1,8,10a,11-tetrahydroxy-10,12-dioxo-5,5a,6,6a,7,10,10a,12-octahydrotetracen-2-yl]amino}-2-oxoethyl)(butyl)amino]carbonyl}oxy)methyl thiophene-2-carboxylate]
- MIC (S. aureus GC 6335; GC6335, read-out: MINIMAL INHIBITORY CONCENTRATION MIC, pre-incubated in Mouse Serum): 2 µg/mL (≈ 2.6 µM)
- MIC (S. aureus GC 6335; GC6335, read-out: MINIMAL INHIBITORY CONCENTRATION MIC, pre-incubated in Water): 4 µg/mL (≈ 5.2 µM)
- MIC (P. aeruginosa GC 2214; GC2214, read-out: MINIMAL INHIBITORY CONCENTRATION MIC, pre-incubated in Mouse Serum): > 64 µg/mL
- MIC (P. aeruginosa GC 2214; GC2214, read-out: MINIMAL INHIBITORY CONCENTRATION MIC, pre-incubated in Water): > 64 µg/mL
- ED50 (Staph. aureus Smith; Staphylococcus aureus, in Mus musculus, po, read-out: ED50 Staph Smith SOD): 19 mg/kg
- ED50 (Staph. aureus Smith; iv, read-out: ED50 Staph Smith SIV): 0.47 mg/kg
- MIC (E. faecalis GC 2265; GC2265, read-out: MINIMAL INHIBITORY CONCENTRATION MIC, pre-incubated in Mouse Serum): 1 µg/mL (≈ 1.3 µM)
- MIC (E. faecalis GC 2265; GC2265, read-out: MINIMAL INHIBITORY CONCENTRATION MIC, pre-incubated in Water): 4 µg/mL (≈ 5.2 µM)
- MIC (S. aureus GC 4536; GC4536, read-out: MINIMAL INHIBITORY CONCENTRATION MIC, pre-incubated in Mouse Serum): 1 µg/mL (≈ 1.3 µM)
- MIC (S. aureus GC 4536; GC4536, read-out: MINIMAL INHIBITORY CONCENTRATION MIC, pre-incubated in Water): 2 µg/mL (≈ 2.6 µM)
- MIC (E. coli GC 2271; GC2271, read-out: MINIMAL INHIBITORY CONCENTRATION MIC, pre-incubated in Mouse Serum): 1 µg/mL (≈ 1.3 µM)
- MIC (E. coli GC 2271; GC2271, read-out: MINIMAL INHIBITORY CONCENTRATION MIC, pre-incubated in Water): > 64 µg/mL
- MIC (E. coli GC 4559; GC4559, read-out: MINIMAL INHIBITORY CONCENTRATION MIC, pre-incubated in Mouse Serum): 2 µg/mL (≈ 2.6 µM)
- MIC (E. coli GC 4559; GC4559, read-out: MINIMAL INHIBITORY CONCENTRATION MIC, pre-incubated in Water): > 64 µg/mL
- MIC (E. coli GC 2232; GC2232, read-out: MINIMAL INHIBITORY CONCENTRATION MIC, pre-incubated in Mouse Serum): 1 µg/mL (≈ 1.3 µM)
- MIC (E. coli GC 2232; GC2232, read-out: MINIMAL INHIBITORY CONCENTRATION MIC, pre-incubated in Water): > 64 µg/mL
- MIC (S. pyogenes GC 4563; GC4563, read-out: MINIMAL INHIBITORY CONCENTRATION MIC, pre-incubated in Mouse Serum): 0.12 µg/mL (≈ 0.156 µM)
- MIC (S. pyogenes GC 4563; GC4563, read-out: MINIMAL INHIBITORY CONCENTRATION MIC, pre-incubated in Water): 0.25 µg/mL (≈ 0.325 µM)
- MIC (S. pneumoniae+ GC 4465; read-out: MINIMAL INHIBITORY CONCENTRATION MIC, pre-incubated in Mouse Serum): 4 µg/mL (≈ 5.2 µM)
- MIC (S. pneumoniae+ GC 4465; read-out: MINIMAL INHIBITORY CONCENTRATION MIC, pre-incubated in Water): 8 µg/mL (≈ 10.4 µM)
- MIC (E. coli; 20 h, read-out: Range of MIC, E. coli (Mouse Serum)): 1 to 8 µg/mL (≈ 1.3 to 10.4 µM)
- MIC (E. coli; read-out: Minimum inhibitory concentration (MIC), E. coli (mouse serum)): 1 to 8 µg/mL (≈ 1.3 to 10.4 µM)
- MIC (E. coli; read-out: Minimum inhibitory concentration (MIC), E. coli (water)): > 64 µg/mL
- MIC (E. coli; read-out: Range of MIC, E. coli (Water)): > 64 µg/mL
- MIC (S. aureus GC 6469; GC6469, read-out: MINIMAL INHIBITORY CONCENTRATION MIC, pre-incubated in Mouse Serum): 4 µg/mL (≈ 5.2 µM)
- MIC (S. aureus GC 6469; GC6469, read-out: MINIMAL INHIBITORY CONCENTRATION MIC, pre-incubated in Water): 4 µg/mL (≈ 5.2 µM)
- MIC (E. coli GC 2270; GC2270, read-out: MINIMAL INHIBITORY CONCENTRATION MIC, pre-incubated in Mouse Serum): 1 µg/mL (≈ 1.3 µM)
- MIC (E. coli GC 2270; GC2270, read-out: MINIMAL INHIBITORY CONCENTRATION MIC, pre-incubated in Water): > 64 µg/mL
- MIC (E. faecium GC 2243; GC2243, read-out: MINIMAL INHIBITORY CONCENTRATION MIC, pre-incubated in Mouse Serum): 0.5 µg/mL (≈ 0.649 µM)
- MIC (E. faecium GC 2243; GC2243, read-out: MINIMAL INHIBITORY CONCENTRATION MIC, pre-incubated in Water): 4 µg/mL (≈ 5.2 µM)
- MIC (S. agalactiae GC 4564; GC4564, read-out: MINIMAL INHIBITORY CONCENTRATION MIC, pre-incubated in Mouse Serum): 0.25 µg/mL (≈ 0.325 µM)
- MIC (S. agalactiae GC 4564; GC4564, read-out: MINIMAL INHIBITORY CONCENTRATION MIC, pre-incubated in Water): 0.25 µg/mL (≈ 0.325 µM)
- MIC (E. coli GC 1073; GC1073, read-out: MINIMAL INHIBITORY CONCENTRATION MIC, pre-incubated in Mouse Serum): 1 µg/mL (≈ 1.3 µM)
- MIC (E. coli GC 1073; GC1073, read-out: MINIMAL INHIBITORY CONCENTRATION MIC, pre-incubated in Water): > 64 µg/mL
- MIC (S. aureus GC 2216; GC2216, read-out: MINIMAL INHIBITORY CONCENTRATION MIC, pre-incubated in Mouse Serum): 1 µg/mL (≈ 1.3 µM)
- MIC (S. aureus GC 2216; GC2216, read-out: MINIMAL INHIBITORY CONCENTRATION MIC, pre-incubated in Water): 4 µg/mL (≈ 5.2 µM)
- MIC (E. faecalis GC 2242; GC2242, read-out: MINIMAL INHIBITORY CONCENTRATION MIC, pre-incubated in Mouse Serum): 2 µg/mL (≈ 2.6 µM)
- MIC (E. faecalis GC 2242; GC2242, read-out: MINIMAL INHIBITORY CONCENTRATION MIC, pre-incubated in Water): 4 µg/mL (≈ 5.2 µM)
- MIC (E. coli GC 3226; GC3226, read-out: MINIMAL INHIBITORY CONCENTRATION MIC, pre-incubated in Mouse Serum): 8 µg/mL (≈ 10.4 µM)
- MIC (E. coli GC 3226; GC3226, read-out: MINIMAL INHIBITORY CONCENTRATION MIC, pre-incubated in Water): > 64 µg/mL
- MIC (c. albicans GC 3066; Candida albicans, GC3066, read-out: MINIMAL INHIBITORY CONCENTRATION MIC): > 64 µg/mL
- MINIMAL INHIBITORY CONCENTRATION MIC (c. albicans GC 3066; pre-incubated in Water): >64 UG/ML
